Measured values published in the supplement of paper PMC10307832.

Experiments:
Test in all cases: relative viability (nuclei count vs DMSO), 5 days (fraction); higher = more cells survive
[1] = compound: O=C(CCCCCCNC(=O)c1cnc(N(c2ccccc2)c2ccccc2)nc1)NO [Ricolinostat] + Nc1nc2[nH]cc(CCc3ccc(C(=O)N[C@@H](CCC(=O)O)C(=O)O)cc3)c2c(=O)[nH]1 [Pemetrexed] (partner 0.2 µM)
Summary of the method: (§1)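 Lung cancer cell lines, seeded in 1536-well plates, were treated the following day by pin tool with a single drug or with five library-drug doses (not always all listed) in √10 steps on top of a fixed anchor-drug dose. Cells were fixed and nuclei stained in one step after 5 days, and nuclei were counted. Relative viability is the nuclei count for treated wells divided by that for vehicle wells, reported as medians of duplicate plates.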

[2] = compound: CC1=CN2C(=O)C=C(N=C2C(=C1)C(C)NC3=CC=CC=C3)N4CCOCC4 [TGX 221] + C[C@@H](Oc1cc(-c2cnn(C3CCNCC3)c2)cnc1N)c1c(Cl)ccc(F)c1Cl [Crizotinib] (partner 1 µM)
Summary of the method: as §1

[3] = compound: O=C(CCCCCCNC(=O)c1cnc(N(c2ccccc2)c2ccccc2)nc1)NO [Ricolinostat] + CCNC(=O)c1noc(-c2cc(C(C)C)c(O)cc2O)c1-c1ccc(CN2CCOCC2)cc1 [Luminespib] (partner 0.01 µM)
Summary of the method: as §1

[4] = compound: O=C(CCCCCCNC(=O)c1cnc(N(c2ccccc2)c2ccccc2)nc1)NO [Ricolinostat] + C[C@@H](Oc1cc(-c2cnn(C3CCNCC3)c2)cnc1N)c1c(Cl)ccc(F)c1Cl [Crizotinib] (partner 1 µM)
Summary of the method: as §1

Row | Cell Line | relative viability ([1]; first compound 0.253 µM) | relative viability ([1]; first compound 0.8 µM) | relative viability ([1]; first compound 2.53 µM) | relative viability ([2]; first compound 0.08 µM) | relative viability ([2]; first compound 0.253 µM) | relative viability ([2]; first compound 0.8 µM) | relative viability ([2]; first compound 2.53 µM) | relative viability ([2]; first compound 8 µM) | relative viability ([3]; first compound 0.08 µM) | relative viability ([3]; first compound 0.253 µM) | relative viability ([3]; first compound 0.8 µM) | relative viability ([3]; first compound 2.53 µM) | relative viability ([1]; first compound 0.08 µM) | relative viability ([4]; first compound 0.08 µM) | relative viability ([4]; first compound 0.8 µM) | relative viability ([4]; first compound 2.53 µM) | relative viability ([4]; first compound 0.253 µM)
1 | NCI-H1648 | 0.596 | 0.629 | 0.521 | – | – | – | – | – | – | – | – | – | – | – | – | – | –
2 | NCI-H1755 | 0.386 | 0.343 | 0.418 | 0.873 | 0.863 | 0.827 | 0.752 | 0.607 | 0.489 | 0.528 | 0.442 | 0.752 | 0.405 | 0.786 | 0.893 | 0.79 | –
3 | PC-3 [JPC-3] | 1.11 | 0.738 | 1 | 0.988 | 0.991 | 1.04 | 0.912 | 0.994 | – | 0.702 | 0.764 | 0.66 | 0.845 | 1.01 | 0.963 | 0.829 | 0.902
4 | HCC-44 | 0.548 | 0.682 | 0.601 | 0.83 | 0.794 | 0.875 | 0.758 | 0.733 | 0.98 | 1.04 | 1.02 | 0.911 | 0.661 | 0.836 | 0.774 | 0.592 | 0.753
5 | CAL-12T | 1.15 | 1.28 | 1.37 | 0.53 | 0.673 | 0.72 | 0.689 | 0.595 | 0.497 | 0.378 | 0.542 | 0.303 | 0.884 | 0.623 | 0.571 | 0.618 | 0.545
6 | ChaGo-K-1 | 0.255 | 0.262 | 0.27 | 1.1 | 1.01 | 1.18 | 1.11 | 0.989 | 0.679 | 0.633 | 0.561 | 0.577 | 0.253 | 1.13 | 1.05 | 0.997 | 1.08
7 | NCI-H2126 | 0.708 | 0.619 | 0.583 | 0.992 | 1.04 | 0.963 | 0.975 | 0.966 | – | 0.919 | 1.01 | 0.862 | 0.509 | 0.862 | 1.06 | 1.01 | 0.945
8 | HCC-827 | 0.256 | 0.232 | 0.212 | 0.884 | 0.937 | 0.985 | 0.859 | 0.892 | 0.581 | 0.76 | 0.487 | 0.552 | 0.23 | 0.827 | 0.841 | 0.846 | 0.956
9 | LCLC-97TM1 | 0.157 | 0.137 | 0.157 | 0.394 | 0.299 | 0.41 | 0.263 | 0.252 | 0.651 | 0.752 | 0.565 | 0.561 | 0.152 | 0.363 | 0.277 | 0.286 | 0.435
10 | HCC-15 | 0.214 | 0.231 | 0.234 | 0.821 | 0.783 | 0.852 | 0.772 | 0.811 | 0.3 | 0.28 | 0.382 | 0.497 | 0.22 | 0.775 | 0.799 | 0.84 | 0.801
11 | NCI-H727 | – | – | – | 0.879 | 0.792 | 0.663 | 0.861 | 0.821 | 0.314 | 0.283 | 0.236 | 0.379 | – | 0.748 | 0.802 | 0.704 | 0.782
12 | NCI-H2170 | 0.242 | 0.281 | 0.244 | 1.11 | 1.2 | 1.19 | 0.987 | 1.14 | 0.616 | 0.717 | 0.661 | 0.953 | 0.247 | 1.16 | 1.16 | 1.23 | 1.17
13 | 201T | 0.314 | 0.334 | 0.311 | – | 1.07 | 1.01 | 0.993 | 0.985 | 0.94 | 1.04 | 1.09 | 1.08 | 0.339 | 0.926 | 1.08 | 1.07 | 1.04
14 | NCI-H838 | 0.273 | 0.259 | 0.208 | 0.833 | 0.77 | 0.783 | 0.699 | 0.51 | 0.254 | 0.291 | 0.289 | 0.169 | 0.236 | 0.672 | 0.899 | 0.731 | 0.896
15 | NCI-H1915 | 0.416 | 0.458 | 0.397 | 0.864 | 0.83 | 0.942 | 0.9 | 0.813 | 0.71 | 0.79 | 0.784 | 0.669 | 0.399 | 0.853 | 0.882 | 0.809 | 0.868
16 | LCLC-103H | 0.463 | 0.476 | 0.516 | 1.12 | 1.06 | 0.986 | 0.959 | 0.876 | 0.869 | 0.887 | 0.862 | 0.829 | 0.488 | 0.951 | 1.04 | 1.05 | 1.02
17 | SK-LU-1 | 0.97 | 0.949 | 0.864 | 0.836 | 0.809 | 0.901 | 0.825 | 0.803 | 0.199 | 0.204 | 0.212 | 0.223 | 1.06 | 0.789 | 0.809 | 0.682 | 0.897
18 | NCI-H2347 | 0.382 | 0.429 | 0.449 | 0.67 | 0.666 | 0.635 | 0.701 | 0.542 | 0.424 | 0.487 | 0.573 | 0.364 | 0.409 | 0.618 | 0.673 | 0.581 | 0.675
19 | ABC-1 | – | – | – | 0.946 | 0.809 | 1.25 | 1.01 | 1.26 | 0.537 | 0.761 | 0.527 | 0.261 | – | 1.01 | 0.836 | 0.705 | 1.16
20 | NCI-H1563 | 0.767 | 0.74 | 0.726 | 0.846 | 0.832 | 0.766 | 0.736 | 0.666 | 0.553 | 0.502 | 0.508 | 0.525 | 0.788 | 0.862 | 0.732 | 0.689 | 0.822
